Laboratory results as given in PMC7242238 (Clinical Drug Investigation, 2020).
Like-named read-outs stand apart in the source and are kept apart here.

Columns and labels:
[1] = format: in vivo, human
[2] = format: in vivo, human; settings: for CL/F / AUC(0-inf) / AUC(0-t) / half-life / k el: Cohort 1: naldemedine 0.2 mg alone or with itraconazole 200 mg, n = 14; for AUC(0-inf): AUC0–inf; for AUC(0-t): AUC0–last; for half-life: t1/2,z; for k el: λz
[3] = format: in vivo, human; settings: for CL/F / AUC(0-inf) / AUC(0-t) / half-life / k el: Cohort 2: naldemedine 0.2 mg alone or with fluconazole 200 mg, n = 14; for AUC(0-inf): AUC0–inf; for AUC(0-t): AUC0–last; for half-life: t1/2,z; for k el: λz
[4] = CYP3A inducer study: pharmacokinetics of naldemedine alone or with rifampin; format: in vivo, human; settings: for AUC(0-inf): AUC0–inf; for AUC(0-t): AUC0–last; for half-life: t1/2,z; for k el: λz
healthy subjects [5] = assay: P-gp inhibitor study: safety assessments; format: in vivo, human; settings: of 13 subjects
healthy subjects [6] = assay: CYP3A inhibitors study Cohort 1: safety assessments; format: in vivo, human; settings: of 14 subjects, by treatment period
healthy subjects [7] = assay: CYP3A inhibitors study Cohort 2: safety assessments; format: in vivo, human; settings: of 14 subjects, by treatment period
healthy subjects [8] = settings: cited from earlier work
[9] = tested on: spontaneous bowel movements; settings: cited from earlier work
healthy subjects [10] = assay: CYP3A inducer study: safety assessments; settings: of 14 subjects; by treatment period
[11] = 12 healthy male subjects; single oral 2-mg doses of 14C-naldemedine; cited from earlier work
[12] = coadministration of cyclosporine 600 mg vs naldemedine 0.4 mg alone
[13] = male, human, plasma, oral, 0.4 mg
[14] = male, human, plasma, po, 0.4 mg
[15] = coadministration of itraconazole vs naldemedine 0.2 mg alone
[16] = human, plasma, oral, 0.2 mg, geometric mean (CV %)
[17] = human, plasma, oral, 0.2 mg, mean (SD)
[18] = coadministration of fluconazole vs naldemedine 0.2 mg alone
[19] = coadministration of rifampin 600 mg QD vs naldemedine 0.2 mg alone
[20] = human, plasma, oral, 0.2 mg, naldemedine 0.2 mg alone or with rifampin 600 mg QD, n = 14, geometric mean (CV %)
[21] = human, plasma, oral, 0.2 mg, naldemedine 0.2 mg alone or with rifampin 600 mg QD, n = 14, mean (SD)

CC(C)(NC(=O)C1=C(O)[C@@H]2Oc3c(O)ccc4c3[C@@]23CCN(CC2CC2)[C@H](C4)[C@]3(O)C1)c1nc(-c2ccccc2)no1 [Naldemedine]
effect of coadministration on median naldemedine Tmax ([1]; coadministration of cyclosporine): not notably affected
increase of naldemedine AUC0–inf [1, 12]: 1.78 fold
increase of naldemedine AUC0–last [1, 12]: 1.79 fold
increase of naldemedine Cmax [1, 12]: 1.45 fold
AUC(0-inf) [1, 13]: 38.9 ng·h/mL
AUC(0-t) [1, 13]: 38.6 ng·h/mL
Cmax [1, 13]: 4.86 ng/mL
half-life [1, 13]: 10.6 h
k el [1, 13]: 1.81e-05 s⁻¹
AUC(0-inf) [1, 14]: 39.5 ng·h/mL
AUC(0-t) [1, 14]: 39.1 ng·h/mL
Cmax [1, 14]: 4.9 ng/mL
Tmax [1, 14]: 0.75 h
half-life [1, 14]: 10.7 h
k el [1, 14]: 1.82e-05 s⁻¹
CL/F ([1]; naldemedine 0.4 mg alone or with cyclosporine 600 mg, n = 13, geometric mean (CV %)): 10.3 (17.3) L/h
CL/F ([2]; geometric mean (CV %)): 7.41 (37.7) L/h
CL/F ([2]; mean (SD)): 8.03 (4.39) L/h
effect of coadministration on median naldemedine Tmax ([2]; coadministration of itraconazole): not notably affected
increase of naldemedine AUC0–inf [2, 15]: 2.91 fold
increase of naldemedine AUC0–last [2, 15]: 2.65 fold
increase of naldemedine Cmax [2, 15]: 1.12 fold
Cmax ([2]; human, plasma, oral, 0.2 mg): 3.56 ng/mL
Tmax ([2]; human, plasma, oral, 0.2 mg): 0.75 h
AUC(0-inf) [2, 16]: 27 ng·h/mL
AUC(0-inf) [2, 17]: 28.3 ng·h/mL
AUC(0-t) [2, 16]: 26.7 ng·h/mL
AUC(0-t) [2, 17]: 28.1 ng·h/mL
half-life [2, 16]: 10.4 h
half-life [2, 17]: 10.7 h
k el [2, 16]: 1.85e-05 s⁻¹
k el [2, 17]: 1.9e-05 s⁻¹
Cmax ([2]; human, plasma, po, 0.2 mg): 3.77 ng/mL
CL/F ([3]; geometric mean (CV %)): 7.36 (16.5) L/h
CL/F ([3]; mean (SD)): 7.45 (1.16) L/h
effect of coadministration on median naldemedine Tmax ([3]; coadministration of fluconazole): not notably affected
increase of naldemedine AUC0–inf [3, 18]: 1.90 fold
increase of naldemedine AUC0–last [3, 18]: 1.88 fold
increase of naldemedine Cmax [3, 18]: 1.38 fold
Cmax ([3]; human, plasma, oral, 0.2 mg): 3.48 ng/mL
Tmax ([3]; human, plasma, oral, 0.2 mg): 1 h
AUC(0-inf) [3, 16]: 27.2 ng·h/mL
AUC(0-inf) [3, 17]: 27.5 ng·h/mL
AUC(0-t) [3, 16]: 26.9 ng·h/mL
AUC(0-t) [3, 17]: 27.3 ng·h/mL
half-life [3, 16]: 10.1 h
half-life [3, 17]: 10.4 h
k el [3, 16]: 1.9e-05 s⁻¹
k el [3, 17]: 1.95e-05 s⁻¹
Cmax ([3]; human, plasma, po, 0.2 mg): 3.57 ng/mL
effect of coadministration on median naldemedine Tmax ([4]; coadministration of rifampin): not notably affected
decrease of naldemedine AUC0–last [4, 19]: 83%
decrease of naldemedine Cmax [4, 19]: 38%
Cmax ([4]; human, plasma, oral, 0.2 mg): 2.72 ng/mL
Tmax ([4]; human, plasma, oral, 0.2 mg): 1 h
AUC(0-inf) [4, 20]: 21.8 ng·h/mL
AUC(0-inf) [4, 21]: 22.1 ng·h/mL
AUC(0-t) [4, 20]: 21.5 ng·h/mL
AUC(0-t) [4, 21]: 21.8 ng·h/mL
half-life [4, 20]: 11.7 h
half-life [4, 21]: 11.9 h
k el [4, 20]: 1.64e-05 s⁻¹
k el [4, 21]: 1.67e-05 s⁻¹
Cmax ([4]; human, plasma, po, 0.2 mg): 2.8 ng/mL
CL/F ([4]; naldemedine 0.2 mg alone or with rifampin 600 mg QD, n = 14, geometric mean (CV %)): 9.19 (19.2) L/h
CL/F ([4]; naldemedine 0.2 mg alone or with rifampin 600 mg QD, n = 14, mean (SD)): 9.35 (1.86) L/h
Tmax ([4]; naldemedine 0.2 mg alone or with rifampin 600 mg QD, n = 14, median (range)): 1.00 (0.50, 2.50) h
subjects with TEAEs (healthy subjects [5]; naldemedine 0.4 mg alone or plus cyclosporine 600 mg): 7.7%
subjects with headache (TEAE) (healthy subjects [5]): 7.7%
subjects with TEAEs (healthy subjects [6]): 7.1%
subjects with TEAEs (healthy subjects [7]): 7.1%
dose linearity of pharmacokinetics (healthy subjects [8]; dose range of 0.2–0.4 mg): linear pharmacokinetics
safety and tolerability (healthy subjects [8]; naldemedine doses of 0.1 to 100 mg, healthy subjects): safe and well tolerated
clinical benefit compared with placebo ([9]; naldemedine 0.1 mg): no significant differences
clinical benefit (spontaneous bowel movements) compared with placebo ([9]; naldemedine 0.2- and 0.4-mg doses): significant clinical benefits
subjects with TEAEs (healthy subjects [10]): no TEAEs

CCC(C)n1ncn(-c2ccc(N3CCN(c4ccc(OCC5COC(Cn6cncn6)(c6ccc(Cl)cc6Cl)O5)cc4)CC3)cc2)c1=O (stereo not drawn) [itraconazole, reference compound]
subjects with TEAEs (healthy subjects [6]): 14.3%

CC(C)(NC(=O)C1=C(O)[C@@H]2Oc3c(O)ccc4c3[C@@]23CCN[C@H](C4)[C@]3(O)C1)c1nc(-c2ccccc2)no1 [nor-naldemedine]
share of the systemic exposure of unchanged naldemedine [11]: 9–13%
